Data reported in US11103581B2, “Methods and compositions for self-regulated release of active pharmaceutical ingredient” (Acura Pharmaceuticals, Inc., priority 2015, dated 2021).

Legend:
[1] = acid media pH 1
Description: Thus, sodium bicarbonate was added to a prototype formulation primarily to control rapid pH elevation and calcium carbonate for a more sustained control of elevated pH.

[2] = pH monitoring of calcium carbonate antacid tablets in HCl dissolution vessel; format: physicochemical; details: five tablets, 25 mEq of HCl
Description: Two dissolution vessels were prepared: one vessel contained 25 mEq of HCl and a single commercially available calcium carbonate antacid tablet (Tums®), and the other vessel contained 25 mEq of HCl and five calcium carbonate antacid tablets. […] Calcium carbonate has shown a capability as a pH modifier and pH dependent solubility.

With `O=C([O-])O.[Na+]` [sodium bicarbonate] the “time to raise acid media from pH 1 to pH 6” value [1] was “less than 2 minutes”.

In the case of `O=C([O-])[O-].[Ca+2]` [calcium carbonate], the “pH reached in 10 minutes” value [2] is reported as 5.
